Patent US20210085640A1, “ACYLATED CATECHIN POLYPHENOLS AND METHODS OF THEIR USE FOR THE TREATMENT OF CANCER” (Flagship Pioneering Innovations V, Inc., priority 2018, published 2021)

Assays:
Assay type in all cases: cell-based
[1] = test system: PC-3 prostate cancer cells; experiment: Cancer cell survival (CellTiter-Glo), PC-3; details: Homo sapiens, PC-3 cells, 72 h
In short: (§1)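 Cells were seeded at 4×10^3 cells/well and left overnight at 37 C, 5% CO2, then exposed in triplicate to nine compound concentrations for 72 h. Dosing solutions were made at 10× final (1 μM-10 mM fatty acids, 100 nM-1 mM other compounds). CellTiter-Glo luminescence, normalised to untreated and medium-only wells, gave IC50.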

[2] = test system: HCT 116 colorectal cancer cells; experiment: Cancer cell survival (CellTiter-Glo), HCT 116; details: Homo sapiens, HCT 116 cells, 72 h
In short: as §1

A549 lung cancer cells = experiment: Cancer cell survival (CellTiter-Glo), A549; details: Homo sapiens, 72 h
In short: as §1

T24 bladder cancer cells = experiment: Cancer cell survival (CellTiter-Glo), T24; details: Homo sapiens
In short: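 T24 cells seeded at 4×10^3 cells/well overnight, then exposed 72 h at 37 C, 5% CO2 to nine concentrations in triplicate. Survival measured by CellTiter-Glo luminescence relative to untreated and medium controls; IC50 derived.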

[3] = test system: Daudi lymphoma cancer cells; experiment: Cancer cell survival (CellTiter-Glo), Daudi; details: Homo sapiens, 72 h
In short: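 Daudi cells (4×10^3/well) were exposed for 72 h at 37 °C to nine concentrations of compound, added as 10× solutions spanning 1 μM–10 mM (fatty acids) or 100 nM–1 mM (others). CellTiter-Glo luminescence gave % survival versus untreated, medium-blank corrected; IC50 derived.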

A-431 skin cancer cells = experiment: Cancer cell survival (CellTiter-Glo), A-431; details: Homo sapiens, A-431 cells, 72 h
In short: as §1

AGS stomach cancer cells = experiment: Cancer cell survival (CellTiter-Glo), AGS
In short: as §1

MCF7 breast cancer cells = experiment: Cancer cell survival (CellTiter-Glo), MCF7; details: Homo sapiens, 72 h
In short: as §1

[4] = Human Regulatory T Cell Differentiation Assay; details: human, primary naïve CD4+ T cells isolated from PBMCs, 1 uM, read-out: Cell viability % DMSO
Description: Peripheral blood mononuclear cells (PBMCs) from whole blood donated by health volunteers were separated by Ficoll-Paque gradient centrifugation and naïve CD4^+ T cells were subsequently isolated using magnet beads (EasySep™ Human Naïve CD4^+ T Cell Isolation Kit, Cambridge, Mass.). For regulatory T cell (Treg) differentiation assay, naïve CD4^+ T cells were cultured (1-10×10^4 cells) in CTS OpTmizer medium for 6 days and stimulated with 5 ng/ml TGF-β, 100 U/ml IL-2, and ImmunoCult™ Human […] T Cell Activator; Stemcell #10990) with/without Compounds. Cell viability was determined using a viability dye (eBioscience Fixable Viability Dye eFluor 780: ThermoFisher 65-0865-14) at 1:500 dilution. The cells were gated for Treg, defined as Live, CD11c^−, CD14^−, CD19^−, CD8^−, CD4^+, CD3^+, CD25^+, FOXP3^+. Percent (%) Tregs were calculated as percentage of CD4^+, CD25^+, FOXP3^+ cells over total CD4^+ T cells. Statistical analysis was performed with GraphPad Prism Software Using One-Way ANOVA.

[5] = 101 nM, read-out: Cell survival at given concentration
[6] = 318 nM, read-out: Cell survival at given concentration
[7] = 1 μM, read-out: Cell survival at given concentration
[8] = 3 μM, read-out: Cell survival at given concentration
[9] = 10 μM, read-out: Cell survival at given concentration
[10] = 32 μM, read-out: Cell survival at given concentration
[11] = 100 μM, read-out: Cell survival at given concentration
[12] = 316 μM, read-out: Cell survival at given concentration
[13] = 1000 μM, read-out: Cell survival at given concentration

Oc1ccc(C=Cc2cc(O)cc(O)c2)cc1 [resveratrol]
viability at 0.101 µM [1, 5]: 101% | viability at 0.318 µM [1, 6]: 102% | viability at 1 µM [1, 7]: 101% | viability at 3 µM [1, 8]: 102% | viability at 10 µM [1, 9]: 103% | viability at 32 µM [1, 10]: 96% | viability at 100 µM [1, 11]: 95% | viability at 316 µM [1, 12]: 32% | viability at 1000 µM [1, 13]: 0% | IC50 ([1]; Table 8.1): 248 µM | viability at 0.101 µM [2, 5]: 103% | viability at 0.318 µM [2, 6]: 98% | viability at 1 µM [2, 7]: 98% | viability at 3 µM [2, 8]: 101% | viability at 10 µM [2, 9]: 98% | viability at 32 µM [2, 10]: 65% | viability at 100 µM [2, 11]: 0% | viability at 316 µM [2, 12]: 0% | viability at 1000 µM [2, 13]: 0% | IC50 ([2]; Table 6.1): 37.4 µM | viability at 0.101 µM (A549 lung cancer cells; [5]): 98% | viability at 0.318 µM (A549 lung cancer cells; [6]): 99% | viability at 1 µM (A549 lung cancer cells; [7]): 98% | viability at 3 µM (A549 lung cancer cells; [8]): 98% | viability at 10 µM (A549 lung cancer cells; [9]): 98% | viability at 32 µM (A549 lung cancer cells; [10]): 96% | viability at 100 µM (A549 lung cancer cells; [11]): 88% | viability at 316 µM (A549 lung cancer cells; [12]): 50% | viability at 1000 µM (A549 lung cancer cells; [13]): 0% | IC50 (A549 lung cancer cells; Table 7.1): 317 µM | viability at 0.101 µM (T24 bladder cancer cells; T-24, 101 nM, 72 h, read-out: Cell survival at given concentration): 100% | viability at 0.318 µM (T24 bladder cancer cells; T-24, 318 nM, 72 h, read-out: Cell survival at given concentration): 102% | viability at 1 µM (T24 bladder cancer cells; T-24, 1 μM, 72 h, read-out: Cell survival at given concentration): 100% | viability at 3 µM (T24 bladder cancer cells; T-24, 3 μM, 72 h, read-out: Cell survival at given concentration): 101% | viability at 10 µM (T24 bladder cancer cells; T-24, 10 μM, 72 h, read-out: Cell survival at given concentration): 92% | viability at 32 µM (T24 bladder cancer cells; T-24, 32 μM, 72 h, read-out: Cell survival at given concentration): 1% | viability at 100 µM (T24 bladder cancer cells; T-24, 100 μM, 72 h, read-out: Cell survival at given concentration): 0% | viability at 316 µM (T24 bladder cancer cells; T-24, 316 μM, 72 h, read-out: Cell survival at given concentration): 0% | viability at 1000 µM (T24 bladder cancer cells; T-24, 1000 μM, 72 h, read-out: Cell survival at given concentration): 0% | IC50 (T24 bladder cancer cells; T-24, 72 h, Table 3.1, read-out: 1050): 15.1 µM | viability at 0.101 µM [3, 5]: 100% | viability at 0.318 µM [3, 6]: 101% | viability at 1 µM [3, 7]: 102% | viability at 3 µM [3, 8]: 102% | viability at 10 µM [3, 9]: 101% | viability at 32 µM [3, 10]: 14% | viability at 100 µM [3, 11]: 0% | viability at 316 µM [3, 12]: 0% | viability at 1000 µM [3, 13]: 0% | IC50 ([3]; Table 4.1): 23.9 µM | viability at 0.101 µM (A-431 skin cancer cells; [5]): 101% | viability at 0.318 µM (A-431 skin cancer cells; [6]): 101% | viability at 1 µM (A-431 skin cancer cells; [7]): 102% | viability at 3 µM (A-431 skin cancer cells; [8]): 102% | viability at 10 µM (A-431 skin cancer cells; [9]): 98% | viability at 32 µM (A-431 skin cancer cells; [10]): 87% | viability at 100 µM (A-431 skin cancer cells; [11]): 65% | viability at 316 µM (A-431 skin cancer cells; [12]): 13% | viability at 1000 µM (A-431 skin cancer cells; [13]): 0% | IC50 (A-431 skin cancer cells; Table 9.1): 132 µM | viability at 0.101 µM (AGS stomach cancer cells; 72 h, 101 nM, read-out: Cell survival at given concentration): 100% | viability at 0.318 µM (AGS stomach cancer cells; 72 h, 318 nM, read-out: Cell survival at given concentration): 95% | viability at 1 µM (AGS stomach cancer cells; 72 h, 1 μM, Table 10.1, read-out: Cell survival at given concentration): 101% | viability at 3 µM (AGS stomach cancer cells; 72 h, 3 μM, Table 10.1, read-out: Cell survival at given concentration): 98% | viability at 10 µM (AGS stomach cancer cells; 72 h, 10 μM, Table 10.1, read-out: Cell survival at given concentration): 100% | viability at 32 µM (AGS stomach cancer cells; 72 h, 32 μM, Table 10.1, read-out: Cell survival at given concentration): 101% | viability at 100 µM (AGS stomach cancer cells; 72 h, 100 μM, Table 10.1, read-out: Cell survival at given concentration): 94% | viability at 316 µM (AGS stomach cancer cells; 72 h, 316 μM, read-out: Cell survival at given concentration): 33% | viability at 1000 µM (AGS stomach cancer cells; 72 h, 1000 μM, read-out: Cell survival at given concentration): 0% | IC50 (AGS stomach cancer cells; Table 10.1): 252 µM | viability at 0.101 µM (MCF7 breast cancer cells; [5]): 94% | viability at 0.318 µM (MCF7 breast cancer cells; [6]): 96% | viability at 1 µM (MCF7 breast cancer cells; [7]): 99% | viability at 3 µM (MCF7 breast cancer cells; [8]): 99% | viability at 10 µM (MCF7 breast cancer cells; [9]): 95% | viability at 32 µM (MCF7 breast cancer cells; [10]): 96% | viability at 100 µM (MCF7 breast cancer cells; [11]): 85% | viability at 316 µM (MCF7 breast cancer cells; [12]): 27% | viability at 1000 µM (MCF7 breast cancer cells; [13]): 0% | IC50 (MCF7 breast cancer cells; Table 5.1): 212 µM | viability at 6 days, 1 µM [4]: < 90%
